Results from patent publication US20240002429A1, “PRODRUG OF 5a-HYDROXY-6ß-[2-(1H-IMIDAZOL-4-YL)ETHYLAMINO]CHOLESTAN-3ß-OL AND PHARMACEUTICAL COMPOSITIONS COMPRISING SAME FOR USE IN THE TREATMENT OF CANCER” (priority 2020, published 2024).
pIC50: −log10 of the molar value. Where two headings read alike, the source gives them in different places.

Key:
[1] = Pharmacokinetic study of DX107 (LC/MS in plasma); type: in vivo; conditions: rat, oral 50 mg/kg, administered compound assayed; for Area under curve: 0-72 h
Description: The following study is determination by LC/MS in plasma of the various molecules over 3 days (11 measurement points at the end). The graphs are always presented in comparison with DX101, which is the reference. […]

[2] = biological target: T1, cholesterol epoxide hydrolase (ChEH) (Homo sapiens, UniProt Q15125); test: Activity of cholesterol epoxide hydrolase (ChEH) in MCF-7 cells, [14C]5,6α-EC metabolization by TLC; type: cell-based; conditions: MCF-7, 1 μM, 24 h, [14C]5,6α-EC 0.6 μM
T1 construct: endogenous in cells; host or cells: MCF-7
T1 sequence (Q15125 whole entry): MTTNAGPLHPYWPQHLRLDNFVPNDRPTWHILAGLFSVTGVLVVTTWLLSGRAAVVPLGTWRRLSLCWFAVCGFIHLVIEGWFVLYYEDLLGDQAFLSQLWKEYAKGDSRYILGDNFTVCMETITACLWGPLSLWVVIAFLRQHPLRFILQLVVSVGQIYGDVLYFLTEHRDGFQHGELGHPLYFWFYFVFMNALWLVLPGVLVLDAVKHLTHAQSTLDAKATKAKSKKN
Description: The compounds 5,6α-epoxycholesterol (5,6α-EC) and 5,6β-epoxycholesterol (5,6β-EC) are oxysterols involved in the anticancer pharmacology of tamoxifen, a widely used antitumor drug. They are both metabolized in cholestan-3β,5α,6β-triol (CT) by the enzyme cholesterol-5,6-epoxide hydrolase (ChEH), and CT is metabolized by the enzyme HSD11B2 (11β-hydroxysteroid dehydrogenase 2) to 6-oxo-cholestan-3β,5α-diol (OCDO), an oncosterone tumor promoter.
MCF-7 cells are in a cell culture medium identical to example 20 and are seeded in 6-well plates at 150000 cells per well with 3 wells per treatment condition. 24 h after seeding, the MCF-7 cells are treated with [^14C]5,6α-EC (stock solution 1000×: 0.6 mM; 20 μCi/μmol; final concentration 0.6 μM) alone or in combination with tamoxifen (tam). Tamoxifen is used as positive control of the study compounds. The treatment with the compound according to the invention is carried out at a concentration of 1 μM.
After 24 hours of treatment, the media are collected and lipid extracts are prepared from the cell pellets by extraction with 100 μL of chloroform, 400 μL of methanol and 300 μL of water. The lipid extracts are analyzed by thin-layer chromatography (TLC) using ethyl acetate (EtOAc) as eluent. The analysis is carried out using a plate reader and then by autoradiography.

4T1 cells = test: Cytotoxicity on 4T1 cells, CellTox Green Cytotoxicity Assay; type: cell-based, murine; conditions: Mus musculus, 4T1, Green Cytotoxicity Assay, 48 h; for IC50: log of IC50 in μM, read-out: Mean LogIC50 (±SEM) (converted); for pIC50: read-out: IC50
Experimental: The cellular viability tests were carried out on murine mammary tumor 4T1 cells characterized as negative triples (HER2−, ER−, PR−).
For this experiment, a cell culture medium was prepared. The culture medium consists of Dulbecco's Modified Eagle Medium (DMEM, marketed by Westburg under the reference LO BE12-604F), comprising 4.5 g/L glucose with L-glutamine, to which 10% of fetal calf serum (FCS) and 50 U/mL of penicillin/streptomycin are added. The 4T1 cells are introduced into this culture medium.
96-well plates were seeded with 2000 4T1 cells per well. After 72 hours (h) of culture in normal conditions, i.e. in an incubator at a temperature of 37° C. at 5% CO2, the 4T1 cells are treated for 48 h with DX101, DX107, DX113, DX117, DX119, DX121 or DX131 at 100 nM, 1 μM, 2.5 μM and 10 μM. A control condition (CTL) is also carried out in parallel using the protocol described above but without treatment with the molecules DX101, DX107, DX113, DX117, DX119, DX121, DX131 or DX133.
For the third method, the percentage viability is determined using the kit CellTox Green Cytotoxicity Assay (Promega). This assay measures cell death via a change in membrane integrity. […] As a result, the higher the fluorescence in the wells, the greater is the cell death. After 48 h of treatment, the cells are incubated for a minimum of 15 minutes in the presence of the Celltox green reagent at room temperature and the fluorescence is read at […]. The percentage cell death is determined using the control 100% of cell death (carried out for untreated cells incubated in the presence of the lysis solution for 30 minutes at 37° C. before adding the Celltox green reagent), and the cellular viability in each well is then deduced from this percentage. IC50 is then determined as explained above.

[3] = system: BT-474 human mammary tumor cells; test: Cytotoxicity on BT-474 cells, MTT; type: cell-based; conditions: BT-474, MTT, 48 h; for Mean LogIC50 (±SEM): log of IC50 in μM; for pIC50: Homo sapiens, read-out: IC50
Experimental: Cellular viability is measured by three different methods. For the first method, MTT labeling is carried out at 48 hours. This test is based on the use of the tetrazolium salt MTT (3-(4,5-dimethylthiazol-2-yl)-2,5-diphenyltetrazolium bromide). The tetrazolium is reduced by mitochondrial succinate dehydrogenase of active living cells, to formazan, a precipitate of a violet color. The quantity of precipitate formed is proportional to the quantity of living cells but also to the metabolic activity of each cell. […] After 48 hours, the medium is aspirated, and the cells are incubated with MTT (0.5 mg/ml in culture medium) for about 3 hours. The MTT solution is aspirated and the violet crystals are dissolved in dimethylsulfoxide (DMSO). The OD (optical density) is measured at 550 nm. The percentage viability is then determined in each well relative to the CTL and the IC50 (concentration for which there are still 50% of living cells) is determined for each molecule with Prism software using the nonlinear regression straight line (log(inhibitor) vs. Response).
The cellular viability tests were also carried out on BT-474 human mammary tumor cells (characterized as being positive triples HER2+, ER+, PR+). The BT-474 cells are in a cell culture medium identical to the preceding example and are seeded in 24-well plates at 70 000 cells per well, for determination of cellular viability using trypan blue, or in 96-well plates at 13 000 cells per well for determination of cellular viability using the MTT or LDH assay. After 96 hours (h) of culture in normal conditions, i.e. in an incubator at a temperature of 37° C. at 5% CO2, the BT-474 cells are treated for 48 h with DX101, DX107, and DX113 at 100 nM, 1 μM, 2.5 μM and 10 μM. A control is also carried out using the protocol described above but without treatment with the molecules DX101, DX107, DX113, DX117, DX119, DX121 or DX131.
After trypsin digestion for 10 minutes at 37° C., cell survival was quantified, also by a trypan blue assay with automatic counting with the Biorad TC20 equipment (TC20™ Automated Cell Counter). The trypan blue assay is based on the cell membrane integrity, which is broken in the dead cells. Trypan blue stains the dead cells blue. The Biorad TC20 cell counter counts the proportion of blue cells and non-blue cells, relative to the cell percentages. The percentage viability is then determined in each well relative to the untreated cells and the IC50 is determined as explained in the preceding example. The percentage viability of the BT-474 cells was determined using the MTT and LDH assay, carried out as described in the preceding example.

SMILES | Concentration max [1] [µM] | Area under curve [1] | inhibition of ChEH activity [2] | IC50 (4T1 cells) [µM] | pIC50 (4T1 cells) | Mean LogIC50 (±SEM) [3] | pIC50 [3]
CC(C)CCC[C@@H](C)[C@H]1CC[C@H]2[C@@H]3C[C@@H](NCCc4c[nH]cn4)[C@@]4(O)C[C@@H](O)CC[C@]4(C)[C@H]3CC[C@]12C [DX101, 5α-hydroxy-6β-[2-(1H-imidazol-4-yl)-ethylamino]-cholestan-3β-ol, reference compound] | 0.14 | 143297 | almost total (trace of CT) | 3.55 | 5.45 | 0.85 ± 0.02 | 5.15
CCC(=O)O[C@H]1CC[C@]2(C)[C@H]3CC[C@]4(C)[C@@H]([C@H](C)CCCC(C)C)CC[C@H]4[C@@H]3C[C@@H](NCCc3c[nH]cn3)[C@@]2(O)C1 [DX107, 5α-hydroxy-6β-[2-(1H-imidazol-4-yl)ethylamino]cholestan-3β-yl propionate] | 0.142 | 89733 | inhibition of ChEH is observed relative to the control (1), but it is less than the positive control (2) | 2.34 | 5.63 | 1.08 ± 0.04 | 4.92
